Columns and labels:
Type in all cases: cell-based
[1] = test system: HCEC-B4G12 corneal endothelial cells; assay: Impact of repeated cell marking on cell viability; details: B4G12, 4 μM, daily marking 45 min, with or without PBS rinsing, D5
Procedure: The experiment is carried out with HCEC-B4G12 corneal endothelial cells (CVCL_2065). The cells are thawed and cultured in their culture medium. The cells are trypsinized once a week before being seeded in wells of 24-well slides at a concentration of 1.10^5 cells/mL. The cells are then incubated for 5 days at 37° C., 5% CO2 until 90% confluence.
The different wells are stained daily with Calcein-AM (4 μM) or product F4267 (40 μM), according to the following conditions: marking for 45 minutes, then rinsing with PBS or marking for 45 minutes without rinsing. The marking and possibly rinsing step is repeated every day for 4 successive days, then after 2 days without marking, the marking is repeated again for 2 consecutive days.
The marking steps are carried out in duplicate. Afterwards, each marking, a well for each of the conditions is observed by epifluorescence microscopy (Olympus IX81 Microscope, FITC channel, ×4 objective, L: 25, Texp: 142.7 ms), while the second well (control) is kept in the darkness in order to evaluate the impact of fluorescence observation at the end of the study. On the last day of the study, the marking is carried out with calecin-AM (4 μM) in the presence of Hoescht ( 1/500) or the product F4267 (40 μM) in the presence of Hoescht ( 1/500), and the wells are imaged in MIA×4 (reconstruction of several fields to obtain a complete image of the well). […]

corneal endothelium = assay: Quality of cytoplasmic marking on corneal endothelium; details: human corneal endothelium, 4 μM, 45 min
Procedure: The quality of cytoplasmic marking by compound 1 (solution F4267) on corneal endothelium was compared to that of Calcein-AM by staining paired corneas. The endothelial surface of the corneas was incubated for 45 minutes either with the F4267 solution (40 μM on the left eye, LE) or with Calcein-AM (4 μM on the right eye, RE) following a validated staining protocol. (Invest Ophthalmol Vis Sci. 2011, 52 (8), 6018-6025, Pipparelli and al.) (n=2 pairs of corneas).

[2] = Cytotoxicity by LDH release (CyQUANT LDH Cytotoxicity Assay); details: human, HCE-2, 4 μM, 45 min contact, read-out: cytotoxicity (% of dead cells, LDH)
Procedure: The cytotoxicity of a solution of compound 1 in Cremophor® EL [CAS 61791-12-6](molar ratio 1/1), designated under the reference F4267, compared to that of calcein-AM, was evaluated on the human corneal epithelium cell line immortalized by SV40, HCE-2 (ATCC CRL-11135) using two solutions of F4267 of concentrations [40 μM] and [1000 μM] or calcein-AM (FP-F19820, Interchim) [4 μM] diluted in optiMEM (11058021, Gibco, ThermoFisher) and deposited for 45 minutes on the cells (100 μL per well seeded 24 hours previously at 1.10^5 cells/mL [3788, Corning, surface: 0.32 cm^2]. After 45 minutes of contact with compound 1 or with calcein-AM, the cells were rinsed with their culture medium, then returned to culture in an oven with 5% CO2, at 37° C. Cytotoxicity was measured by dosing lactate dehydrogenases (LDH) released into the supernatant using the CyQUANT LDH Cytotoxicity Assay kit (C20301, ThermoFisher, see cytotoxicity test below) and expressed as % of dead cells using an internal standard. Cytotoxicity was evaluated 45 minutes (before rinsing), 24 h and 48 h after the start of incubation (3 wells per condition, n=1 experiments).
Lactate DeHydrogenases (LDH) are a family of ubiquitous cytosolic enzymes present in almost all cell types. Membrane damage causes a release of LDH into the external environment. There is a direct correlation between cellular cytotoxicity which causes membrane damage and the amount of LDH present in the extracellular environment. […]
The cytotoxicity test was carried out with tetrazolium salt (INT) which is converted into formazan. […] The concentration of formazan being proportional to the amount of LDH present in the medium, this was quantified by an absorbance reading at 555 nm, against a blank measurement at 650 nm to eliminate the parasitic absorbance of the medium. The percentage of dead cells is then calculated from the formula below, with the maximum LDH activity being that of a well from which all cells have been lysed, and the basal LDH activity, that of a non-treated well.

[3] = test system: normal human fetal lung fibroblasts HEL299; assay: Quality of cytoplasmic marking on adherent cells; details: HEL299, 4 μM, FITC filter, macroscope
Procedure: The quality of cytoplasmic marking by compound 1 on cells was evaluated on the adherent line of normal human fetal lung fibroblasts HEL299 [ATCC CCL-137], because they form a cellular monolayer (a single thickness facilitating the evaluation of cellular morphology and enumeration). Cells were seeded at 1.10^5 cells/mL 72 h before marking, then marked with the solution of compound 1 designated by the reference F4267 at [4 μM] and [40 μM] or with a solution of Calcein-AM [4 μM], then observed in a sterile Petri dish under the FITC filter of a macroscope (macro-zoom microscope, MVX10, Olympus, Tokyo, Japan) (2 wells per condition, n=1 experiments).

Compound: CC(=O)OCOC(=O)CN(CC(=O)OCOC(C)=O)Cc1c(OC(C)=O)ccc2c1Oc1c(ccc(OC(C)=O)c1CN(CC(=O)OCOC(C)=O)CC(=O)OCOC(C)=O)C21OC(=O)c2ccccc21 [Calcein-AM]
- cell layer after repeated marking [1]: less dense
- cell layer after repeated marking ([1]; listed as calcein-AM): absence of cell layer
- marking differentiating dead cells from living cells (corneal endothelium): marking differentiating dead cells from living cells
- cytotoxicity at 45 min, 4 µM ([2]; measured at 45 min): 0.6 ± 0.5%
- cytotoxicity at 24 h, 4 µM ([2]; measured at 24 h): 26.4 ± 14.1%
- cytotoxicity at 48 h, 4 µM ([2]; measured at 48 h): 18.8 ± 11.1%
- quality of cytoplasmic marking [3]: visualize the cell cytoplasms in a similar way

Source: patent US20240216547A1, “USE OF FLUORESCEIN DICARBONATE DERIVATIVES AS A CELL MARKER” (UNIVERSITE JEAN MONNET SAINT ETIENNE, priority 2021, published 2024)
